Results taken from ChEMBL document CHEMBL5321210, “N-adamantyl-anthranil amide derivatives: New selective ligands for the cannabinoid receptor subtype 2 (CB2R)” (Eur J Med Chem, 2023).
Calls of active or inactive are those of the source. The rule behind the calls is not given here.

Assays:
Cannabinoid receptor 2 = Cannabinoid receptor 2 (Homo sapiens, UniProt P34972); experiment: Agonist activity at human CB2 receptor expressed in CHO-K1 cells assessed as inhibition of NKH-477 induced cAMP production incubated for 30 mins by luminescence based analysis; assay type: functional, cell-based
THP-1 [1] = experiment: Antiinflammatory activity against LPS-activated PMA-differentiated human THP-1 macrophages assessed as decrease in TNF-alpha production at 1 to 10 uM incubated for 24 hrs by ELISA coupled qRT-PCR analysis relative to control; assay type: functional; design: scale not given: the % may be the effect or the level left; conditions: dose 1-10 µM
THP-1 [2] = experiment: Antiinflammatory activity in PMA-differentiated human THP-1 macrophages assessed as decrease in IL-6 production at 1 to 10 uM incubated for 24 hrs in the presence of JTE907 by ELISA coupled qRT-PCR analysis; assay type: functional, cell-based; conditions: dose 1-10 µM
THP-1 [3] = experiment: Antiinflammatory activity in LPS-activated PMA-differentiated human THP-1 macrophages assessed as decrease in IL-1beta production at 1 to 10 uM incubated for 24 hrs in the presence of JTE907 by ELISA coupled qRT-PCR analysis; assay type: functional, cell-based; conditions: dose 1-10 µM
THP-1 [4] = experiment: Antiinflammatory activity in human THP-1 monocytes assessed as decrease in TNF-alpha production incubated for 24 hrs by ELISA coupled qRT-PCR analysis; assay type: functional, cell-based; conditions: dose 1-10 µM
THP-1 [5] = experiment: Antiinflammatory against LPS-activated human THP-1 monocytes assessed as increase in IL-4 production at 1 to 10 uM incubated for 24 hrs in the presence of JTE907 by ELISA coupled qRT-PCR analysis; assay type: functional, cell-based; conditions: dose 1-10 µM
THP-1 [6] = experiment: Antiinflammatory activity in PMA-differentiated human THP-1 macrophages assessed as reduction in IFN-gamma production at 1 to 10 uM incubated for 24 hrs by ELISA coupled qRT-PCR analysis relative to control; assay type: functional; design: scale not given: the % may be the effect or the level left; conditions: dose 1-10 µM
THP-1 [7] = experiment: Antiinflammatory activity in PMA-differentiated human THP-1 macrophages assessed as increase in IL-10 production at 1 to 10 uM incubated for 24 hrs in the presence of JTE907 by ELISA coupled qRT-PCR analysis; assay type: functional, cell-based; conditions: dose 1-10 µM
THP-1 [8] = experiment: Antiinflammatory activity in human THP-1 monocytes assessed as decrease in IL-6 production incubated for 24 hrs by ELISA coupled qRT-PCR analysis; assay type: functional, cell-based; conditions: dose 1-10 µM
THP-1 [9] = experiment: Antiinflammatory activity against LPS-activated human THP-1 monocytes assessed as decrease in IL-6 production at 10 uM incubated for 24 hrs in the presence of N-(adamantan-1-yl)-4-(pentylamino)-[1,1'-biphenyl]-3-carboxamide by ELISA coupled qRT-PCR analysis; assay type: functional, cell-based
THP-1 [10] = experiment: Antiinflammatory activity against LPS-activated PMA-differentiated human THP-1 macrophages assessed as decrease in TNF-alpha production at 10 uM incubated for 24 hrs by ELISA coupled qRT-PCR analysis relative to control; assay type: functional; design: scale not given: the % may be the effect or the level left
THP-1 [11] = experiment: Antiinflammatory activity against LPS-activated PMA-differentiated human THP-1 macrophages assessed as increase in IL-10 production at 10 uM incubated for 24 hrs by ELISA coupled qRT-PCR analysis; assay type: functional, cell-based
THP-1 [12] = experiment: Antiinflammatory activity in PMA-differentiated human THP-1 monocytes assessed as decrease in IL-6 production at 10 uM incubated for 24 hrs in the presence of N-(adamantan-1-yl)-4-(pentylamino)-[1,1'-biphenyl]-3-carboxamide by ELISA coupled qRT-PCR analysis; assay type: functional, cell-based
THP-1 [13] = experiment: Antiinflammatory against LPS-activated human THP-1 monocytes assessed as decrease in IL-1beta production at 10 uM incubated for 24 hrs in the presence of JTE907 by ELISA coupled qRT-PCR analysis; assay type: functional, cell-based
THP-1 [14] = experiment: Antiinflammatory activity in PMA-differentiated human THP-1 monocytes assessed as increase in IL-10 production at 10 uM incubated for 24 hrs in the presence of N-(adamantan-1-yl)-4-(pentylamino)-[1,1'-biphenyl]-3-carboxamide by ELISA coupled qRT-PCR analysis; assay type: functional, cell-based
THP-1 [15] = experiment: Antiinflammatory activity against LPS-activated PMA-differentiated human THP-1 monocytes assessed as decrease in IL-6 production at 10 uM incubated for 24 hrs in the presence of N-(adamantan-1-yl)-4-(pentylamino)-[1,1'-biphenyl]-3-carboxamide by ELISA coupled qRT-PCR analysis; assay type: functional, cell-based
THP-1 [16] = experiment: Antiinflammatory activity in PMA-differentiated human THP-1 macrophages assessed as increase in IL-10 production at 10 uM incubated for 24 hrs in the presence of JTE907 by ELISA coupled qRT-PCR analysis; assay type: functional, cell-based
THP-1 [17] = experiment: Antiinflammatory activity in PMA-differentiated human THP-1 macrophages assessed as reduction in IFN-gamma production at 10 uM incubated for 24 hrs by ELISA coupled qRT-PCR analysis relative to control; assay type: functional; design: scale not given: the % may be the effect or the level left
THP-1 [18] = experiment: Antiinflammatory activity against LPS-activated human THP-1 monocytes assessed as decrease in TNF-alpha production at 10 uM incubated for 24 hrs in the presence of N-(adamantan-1-yl)-4-(pentylamino)-[1,1'-biphenyl]-3-carboxamide by ELISA coupled qRT-PCR analysis; assay type: functional, cell-based
THP-1 [19] = experiment: Antiinflammatory activity in human THP-1 monocytes assessed as decrease in IL-1beta production at 10 uM incubated for 24 hrs in the presence of JTE907 by ELISA coupled qRT-PCR analysis; assay type: functional, cell-based
THP-1 [20] = experiment: Antiinflammatory activity in human THP-1 monocytes assessed as increase in IL-4 production at 10 uM incubated for 24 hrs in the presence of N-(adamantan-1-yl)-4-(pentylamino)-[1,1'-biphenyl]-3-carboxamide by ELISA coupled qRT-PCR analysis; assay type: functional, cell-based
THP-1 [21] = experiment: Antiinflammatory activity in human THP-1 monocytes assessed as increase in IL-10 production at 10 uM incubated for 24 hrs by ELISA coupled qRT-PCR analysis; assay type: functional, cell-based
THP-1 [22] = experiment: Antiinflammatory activity in PMA-differentiated human THP-1 macrophages assessed as increase in IL-4 production at 10 uM incubated for 24 hrs by ELISA coupled qRT-PCR analysis; assay type: functional, cell-based
THP-1 [23] = experiment: Antiinflammatory activity against LPS-activated PMA-differentiated human THP-1 macrophages assessed as decrease in IL-1beta production at 10 uM incubated for 24 hrs by ELISA coupled qRT-PCR analysis relative to control; assay type: functional; design: scale not given: the % may be the effect or the level left
THP-1 [24] = experiment: Antiinflammatory against LPS-activated human THP-1 monocytes assessed as decrease in IL-6 production at 10 uM incubated for 24 hrs in the presence of JTE907 by ELISA coupled qRT-PCR analysis; assay type: functional, cell-based
THP-1 [25] = experiment: Antiinflammatory activity in human THP-1 monocytes assessed as increase in IL-10 production at 10 uM incubated for 24 hrs in the presence of N-(adamantan-1-yl)-4-(pentylamino)-[1,1'-biphenyl]-3-carboxamide by ELISA coupled qRT-PCR analysis; assay type: functional, cell-based
THP-1 [26] = experiment: Antiinflammatory activity against LPS-activated human THP-1 monocytes assessed as decrease in IL-1beta production at 10 uM incubated for 24 hrs in the presence of N-(adamantan-1-yl)-4-(pentylamino)-[1,1'-biphenyl]-3-carboxamide by ELISA coupled qRT-PCR analysis; assay type: functional, cell-based
THP-1 [27] = experiment: Antiinflammatory activity in LPS-activated PMA-differentiated human THP-1 macrophages assessed as increase in IL-10 production at 10 uM incubated for 24 hrs in the presence of JTE907 by ELISA coupled qRT-PCR analysis; assay type: functional, cell-based

Chain of Cannabinoid receptor 2 (P34972 whole entry): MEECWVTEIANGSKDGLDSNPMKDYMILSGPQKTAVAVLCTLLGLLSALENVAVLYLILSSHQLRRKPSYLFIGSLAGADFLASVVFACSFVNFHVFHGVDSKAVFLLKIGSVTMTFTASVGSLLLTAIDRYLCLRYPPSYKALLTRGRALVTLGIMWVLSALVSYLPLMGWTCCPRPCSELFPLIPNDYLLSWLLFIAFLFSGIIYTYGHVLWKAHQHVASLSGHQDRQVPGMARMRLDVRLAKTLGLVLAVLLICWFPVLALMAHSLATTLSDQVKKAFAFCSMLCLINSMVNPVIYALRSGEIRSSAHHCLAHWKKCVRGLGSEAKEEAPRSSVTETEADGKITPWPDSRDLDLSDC

CCCCCNc1ccccc1C(=O)NC12CC3CC(CC(C3)C1)C2
EC50 (Cannabinoid receptor 2): 0.56 µM
Activity (THP-1 [1]): 70%
Activity (THP-1 [2]): inactive
Activity (THP-1 [3]): inactive
Activity (THP-1 [4]): Dose-Dependent Effect
Activity (THP-1 [5]): inactive
Activity (THP-1 [6]): 50%
Activity (THP-1 [7]): inactive
Activity (THP-1 [8]): Dose-Dependent Effect

O=C(NC1CCCCC1)c1cn(CCN2CCOCC2)c2cc(Cl)ccc2c1=O
Activity (THP-1 [9]): inactive
Activity (THP-1 [10]): 70%
Activity (THP-1 [11]): Active
Activity (THP-1 [12]): inactive
Activity (THP-1 [13]): inactive
Activity (THP-1 [14]): inactive
Activity (THP-1 [15]): inactive
Activity (THP-1 [16]): inactive
Activity (THP-1 [17]): 50%
Activity (THP-1 [18]): inactive
Activity (THP-1 [19]): inactive
Activity (THP-1 [20]): inactive
Activity (THP-1 [21]): Active
Activity (THP-1 [22]): Active
Activity (THP-1 [23]): 70%
Activity (THP-1 [24]): inactive
Activity (THP-1 [25]): inactive
Activity (THP-1 [26]): inactive
Activity (THP-1 [27]): inactive
